The test system of data set [1] is Jurkat T cells. The data set is described as follows: Antiproliferative screening at 10 μM, MTS assay. Format: cell-based, human. To be noted: Homo sapiens, read-out: Cell viability (%). On the procedure: The Jurkat T cell line was chosen for its reliability as a model for chemotherapeutic studies, particularly in T-cell leukemia.[13]
An MTS (3-(4,5-dimethylthiazol-2-yl)-5-(3-carboxymethoxyphenyl)-2-(4-sulfophenyl)-2H-tetrazolium inner salt) assay[20] was used to assess the leukemic cell viability. […] A total of 2 × 10^3 cells per 100 μL cell culture media were seeded into each well of a 96-well plate and incubated for 24 h. Then, tested compounds or reference drugs [6-mercaptopurine (Merck Millipore, Germany), methotrexate (Merck Millipore, Germany) and cytarabine (Merck Millipore, Germany)] were added, followed by incubation for 72 h. […] The absorbance in each well was measured at 490 nm using a microplate reader (Tecan NanoQuant Infinite M200 Pro, Austria). The percentage of cell viability was estimated by comparing absorbance in wells with the treated and untreated (vehicle control) cells using the following formula: ODtreated/ODuntreated × 100%. All experiments were performed in triplicate and repeated in three independent experiments. The GI50 values were calculated using sigmoidal concentration-response curves generated by the GraphPad Prism 8 program.[21]
On the technique in general: Tetrazolium dyes change colour on reduction, which living cells bring about.

The mark [2] stands for this setting: Jurkat T cells, 10 μM, 72 h after treatment, MTS, mean of three independent experiments.

Where two headings read alike, the source gives them in different places.

Broadly, the viability is a read-out of living cells in per cent, often relative to untreated cells. By melting point is commonly meant the temperature of the solid-liquid transition.

As for `Nc1nc(-c2ccccc2)nc(N2CCCC2)n1` [9{1,1}], the viability at 10 µM in data set [1] (setting [2]) was 100%. For `Nc1nc(-c2cccc(F)c2)nc(N2CCCC2)n1` [9{1,2}, 6-(3-Fluorophenyl)-4-pyrrolidino-1,3,5-triazine-2-amine], the melting point was 182 to 183 °C. Moreover, in data set [1] (setting [2]), the viability at 10 µM came to 100%. In the same order, the values of `Nc1nc(-c2ccc(F)cc2)nc(N2CCCC2)n1` [9{1,3}, 6-(4-Fluorophenyl)-4-pyrrolidino-1,3,5-triazine-2-amine] are 202 to 203 °C and 97%. `Cc1cccc(-c2nc(N)nc(N3CCCC3)n2)c1` [9{1,5}, 6-(3-Methylphenyl)-4-pyrrolidino-1,3,5-triazine-2-amine] registered a melting point of 185 to 186 °C. In addition, in data set [1] (setting [2]), the viability at 10 µM worked out at 82%.

`Cc1ccc(-c2nc(N)nc(N3CCCC3)n2)cc1` [9{1,6}, 6-(4-Methylphenyl)-4-pyrrolidino-1,3,5-triazine-2-amine] registered a melting point of 229 to 230 °C. Also, in data set [1] (setting [2]), the viability at 10 µM is 100%. `CC(C)(C)c1ccc(-c2nc(N)nc(N3CCCC3)n2)cc1` [9{1,7}, 6-[4-(tert-Butyl)phenyl]-4-pyrrolidino-1,3,5-triazine-2-amine]: the melting point fell in the range of 196 to 197 °C. In addition, in data set [1] (setting [2]), the viability at 10 µM amounted to 88%. In the same order, the values of `COc1ccc(-c2nc(N)nc(N3CCCC3)n2)cc1` [9{1,9}, 6-(4-Methoxyphenyl)-4-pyrrolidino-1,3,5-triazine-2-amine] are 208 to 209 °C and 100%. With `Nc1nc(-c2cccc([N+](=O)[O-])c2)nc(N2CCCC2)n1` [9{1,10}, 6-(3-Nitrophenyl)-4-pyrrolidino-1,3,5-triazine-2-amine], the melting point was in the range of 207 to 208 °C. Besides, in data set [1] (setting [2]), the viability at 10 µM was determined as 94%.

The molecule `Nc1nc(-c2ccc(C(F)(F)F)cc2)nc(N2CCCC2)n1` [9{1,11}, 6-[4-(Trifluoromethyl)phenyl]-4-pyrrolidino-1,3,5-triazine-2-amine] registered a melting point of 186 to 187 °C. Further, the viability at 10 µM in data set [1] (setting [2]) came out at 78%. Taken in the same sequence, the figures for `Nc1nc(-c2ccc(OC(F)(F)F)cc2)nc(N2CCCC2)n1` [9{1,12}, 6-[4-(Trifluoromethoxy)phenyl]-4-pyrrolidino-1,3,5-triazine-2-amine] were 149 to 150 °C and 96%. Taken in the same sequence, the figures for `Nc1nc(-c2cccc(Oc3ccccc3)c2)nc(N2CCCC2)n1` [9{1,13}, 6-(3-Phenoxyphenyl)-4-pyrrolidino-1,3,5-triazine-2-amine] were 170 to 171 °C and 87%. In the same order, the values of `Nc1nc(-c2ccc(OCc3ccccc3)cc2)nc(N2CCCC2)n1` [9{1,15}, 6-[4-(Benzyloxy)phenyl]-4-pyrrolidino-1,3,5-triazine-2-amine] are 201 to 202 °C and 94%. Regarding `COc1ccc(-c2nc(N)nc(N3CCCC3)n2)cc1OC` [9{1,16}, 6-(3,4-Dimethoxyphenyl)-4-pyrrolidino-1,3,5-triazine-2-amine], the melting point was 217 to 218 °C. In data set [1] (setting [2]), the viability at 10 µM came to 95%. Consider `COc1cc(-c2nc(N)nc(N3CCCC3)n2)cc(OC)c1OC` [9{1,17}, 6-(3,4,5-Trimethoxyphenyl)-4-pyrrolidino-1,3,5-triazine-2-amine], for which the melting point was in the range of 213 to 214 °C. In data set [1] (setting [2]), the viability at 10 µM is 98%.

Molecule `Nc1nc(-c2cccs2)nc(N2CCCC2)n1` [9{1,18}, 4-Pyrrolidino-6-(2-thienyl)-1,3,5-triazine-2-amine] yielded a melting point of 210 to 211 °C. Further, in data set [1] (setting [2]), the viability at 10 µM amounted to 100%. Take `Nc1nc(-c2ccccc2)nc(N2CCCCC2)n1` [9{2,1}]: the viability at 10 µM in data set [1] (setting [2]) is 100%.

`Nc1nc(-c2cccc(F)c2)nc(N2CCCCC2)n1` [9{2,2}, 6-(3-Fluorophenyl)-4-piperidino-1,3,5-triazine-2-amine]: the melting point lay in the range of 138 to 139 °C. Also, the viability at 10 µM in data set [1] (setting [2]) is 62%.

Molecule `Nc1nc(-c2ccc(F)cc2)nc(N2CCCCC2)n1` [9{2,3}, 6-(4-Fluorophenyl)-4-piperidino-1,3,5-triazine-2-amine] had a melting point of 156 to 157 °C. Also, the viability at 10 µM in data set [1] (setting [2]) came to 98%. With `Nc1nc(-c2ccc(Cl)cc2)nc(N2CCCCC2)n1` [9{2,4}, 6-(4-Chlorophenyl)-4-piperidino-1,3,5-triazine-2-amine], the melting point lay within 177 to 178 °C. Besides, the viability at 10 µM in data set [1] (setting [2]) came out at 83%. For the molecule `Cc1ccc(-c2nc(N)nc(N3CCCCC3)n2)cc1` [9{2,6}, 6-(4-Methylphenyl)-4-piperidino-1,3,5-triazine-2-amine], the viability at 10 µM in data set [1] (setting [2]) came to 100%. Turning to `COc1ccc(-c2nc(N)nc(N3CCCCC3)n2)cc1` [9{2,9}, 6-(4-Methoxyphenyl)-4-piperidino-1,3,5-triazine-2-amine], the melting point lay within 178 to 179 °C. For the same molecule, the viability at 10 µM in data set [1] (setting [2]) is 100%. `Nc1nc(-c2cccc([N+](=O)[O-])c2)nc(N2CCCCC2)n1` [9{2,10}, 6-(3-Nitrophenyl)-4-piperidino-1,3,5-triazine-2-amine]: the melting point was in the range of 158 to 159 °C. For the same molecule, the viability at 10 µM in data set [1] (setting [2]) is 100%. Consider `CC1CCN(c2nc(N)nc(-c3ccccc3)n2)CC1` [9{3,1}], for which, in data set [1] (setting [2]), the viability at 10 µM is 100%.

For the molecule `CC1CCN(c2nc(N)nc(-c3cccc(F)c3)n2)CC1` [9{3,2}, 6-(3-Fluorophenyl)-4-(4-methylpiperidino)-1,3,5-triazine-2-amine], the melting point lay within 125 to 126 °C. In addition, the viability at 10 µM in data set [1] (setting [2]) was found to be 61%. `CC1CCN(c2nc(N)nc(-c3ccc(F)cc3)n2)CC1` [9{3,3}, 6-(4-Fluorophenyl)-4-(4-methylpiperidino)-1,3,5-triazine-2-amine] came in with a melting point of over 300 °C. For the same molecule, the viability at 10 µM in data set [1] (setting [2]) amounted to 86%. Molecule `CC1CCN(c2nc(N)nc(-c3ccc(Cl)cc3)n2)CC1` [9{3,4}, 6-(4-Chlorophenyl)-4-(4-methylpiperidino)-1,3,5-triazine-2-amine] registered a melting point of 168 to 169 °C. Further, the viability at 10 µM in data set [1] (setting [2]) came to 79%. In the same order, the values of `Cc1ccc(-c2nc(N)nc(N3CCC(C)CC3)n2)cc1` [9{3,6}, 6-(4-Methylphenyl)-4-(4-methylpiperidino)-1,3,5-triazine-2-amine] are over 300 °C and 100%.

The molecule `CC1CCN(c2nc(N)nc(-c3ccc(N(C)C)cc3)n2)CC1` [9{3,8}, 6-[4-(N,N-Dimethylamino)phenyl]-4-(4-methylpiperidino)-1,3,5-triazine-2-amine] returned a melting point of 212 to 213 °C. Also, the viability at 10 µM in data set [1] (setting [2]) amounted to 84%. In turn, `COc1ccc(-c2nc(N)nc(N3CCC(C)CC3)n2)cc1` [9{3,9}, 6-(4-Methoxyphenyl)-4-(4-methylpiperidino)-1,3,5-triazine-2-amine] registered a melting point of 172 to 173 °C. For the same molecule, the viability at 10 µM in data set [1] (setting [2]) turned out to be 100%. Regarding `COc1cc(-c2nc(N)nc(N3CCC(C)CC3)n2)cc(OC)c1OC` [9{3,17}, 6-(3,4,5-Trimethoxyphenyl)-4-(4-methylpiperidino)-1,3,5-triazine-2-amine], the viability at 10 µM in data set [1] (setting [2]) was 95%. Consider `CN1CCN(c2nc(N)nc(-c3ccccc3)n2)CC1` [9{4,1}], for which the viability at 10 µM in data set [1] (setting [2]) came to 100%. For `CN1CCN(c2nc(N)nc(-c3ccc(Cl)cc3)n2)CC1` [9{4,4}, 6-(4-Chlorophenyl)-4-(4-methylpiperazino)-1,3,5-triazine-2-amine], the viability at 10 µM in data set [1] (Jurkat, 72 h) came to 100%.

`Nc1nc(-c2ccccc2)nc(N2CCOCC2)n1` [9{5,1}]: the viability at 10 µM in data set [1] (setting [2]) stood at 98%. Regarding `Nc1nc(-c2cccc(F)c2)nc(N2CCOCC2)n1` [9{5,2}], the viability at 10 µM in data set [1] (setting [2]) was found to be 100%. For `Nc1nc(-c2ccc(F)cc2)nc(N2CCOCC2)n1` [9{5,3}], the viability at 10 µM in data set [1] (setting [2]) was found to be 100%. As to `Nc1nc(-c2ccc(Cl)cc2)nc(N2CCOCC2)n1` [9{5,4}], the viability at 10 µM in data set [1] (setting [2]) stood at 100%.

Consider `Cc1cccc(-c2nc(N)nc(N3CCOCC3)n2)c1` [9{5,5}], for which, in data set [1] (setting [2]), the viability at 10 µM stood at 100%.

Take `Cc1ccc(-c2nc(N)nc(N3CCOCC3)n2)cc1` [9{5,6}]: the viability at 10 µM in data set [1] (setting [2]) came out at 100%. For the molecule `CC(C)(C)c1ccc(-c2nc(N)nc(N3CCOCC3)n2)cc1` [9{5,7}], the viability at 10 µM in data set [1] (setting [2]) was 60%. Regarding `CN(C)c1ccc(-c2nc(N)nc(N3CCOCC3)n2)cc1` [9{5,8}], the viability at 10 µM in data set [1] (setting [2]) was 100%. As to `COc1ccc(-c2nc(N)nc(N3CCOCC3)n2)cc1` [9{5,9}], the viability at 10 µM in data set [1] (setting [2]) came to 100%.

`Nc1nc(-c2ccc(OC(F)(F)F)cc2)nc(N2CCOCC2)n1` [9{5,12}]: the viability at 10 µM in data set [1] (setting [2]) turned out to be 100%.

Turning to `Nc1nc(-c2cccc(Oc3ccccc3)c2)nc(N2CCOCC2)n1` [9{5,13}], the viability at 10 µM in data set [1] (setting [2]) was 78%. Turning to `Nc1nc(-c2cccc(OCc3ccccc3)c2)nc(N2CCOCC2)n1` [9{5,14}], the viability at 10 µM in data set [1] (setting [2]) was found to be 63%. For the molecule `Nc1nc(-c2ccc(OCc3ccccc3)cc2)nc(N2CCOCC2)n1` [9{5,15}], the viability at 10 µM in data set [1] (setting [2]) is 94%. Regarding `COc1ccc(-c2nc(N)nc(N3CCOCC3)n2)cc1OC` [9{5,16}], in data set [1] (setting [2]), the viability at 10 µM came to 100%. For the molecule `COc1cc(-c2nc(N)nc(N3CCOCC3)n2)cc(OC)c1OC` [9{5,17}], the viability at 10 µM in data set [1] (setting [2]) was 100%.

Turning to `Nc1nc(-c2cccs2)nc(N2CCOCC2)n1` [9{5,18}], in data set [1] (setting [2]), the viability at 10 µM was 77%.

For the origin of these results see publication PMC10925993, “6-Aryl-4-cycloamino-1,3,5-triazine-2-amines: synthesis, antileukemic activity, and 3D-QSAR modelling” (RSC Advances, 2024).
